Assay results from patent publication US10751378B2, “Pharmaceutical composition comprising Pistacia weinmannifolia extract, fraction of same or compound separated from same for preventing or treating chronic obstructive pulmonary disease (COPD)” (Korea Research Institute of Bioscience and Biotechnology, priority 2014, dated 2020).

What was measured:
MUC5AC = experiment: Inhibition of MUC5AC protein production induced by TNF-α (immunoassay of supernatant); assay type: cell-based; conditions: TNF-α 20 ng/mL; for inhibition at 0.125 µM / inhibition at 0.25 µM / inhibition at 0.5 µM / inhibition at 1 µM: read-out: Inhibition Rate (%) of MUC5AC production
From the text: To analyze the effects of the Pistacia weinmannifolia extract, a fraction thereof, and a compound isolated therefrom, prepared and extracted in Example 1, on the prevention and treatment of inflammatory diseases such as COPD, the inhibitory effect of the Pistacia weinmannifolia extract, a fraction thereof, and a compound isolated therefrom against the secretion of a related protein, MUC5AC. In this regard, to confirm the inhibitory effect of the samples in Examples on the production of MUC5AC protein, experiments were performed using the method described in the reference (Sikder, M A. et al., Phytotherapy research: PTR. 28, 62-8, 2014).
The supernatant, which was recovered for the immunoassay of the produced MUC5AC, was aliquoted into a 96 well-plate in an amount of 50 μL and dried in a homeostat set at 50° C. The resultant was washed with PBS containing 1% BSA, reacted with MUC5AC antibody (ab3649, abcam) at room temperature for one hour, and aliquoted with the secondary antibody and reacted for one hour. The resultant was rewashed, reacted with 3,3′,5,5′-tetramethylbenzidine peroxide solution (54827-17-7, Sigma-Aldrich) for 20 minutes, and the reaction was stopped with a sulfuric acid solution and the coloration was measured at 450 nm using a microplate reader (VERSAmax microplate reader, SMP500-14915, Molecular Devices, USA).

H292 cells = experiment: Cytotoxicity test: H292 cell viability (CCK-8); assay type: cell-based, human; conditions: 24 hours, negative control (0.2% DMSO) = 100%
Experimental: To confirm the cytotoxicity of a Pistacia weinmannifolia extract, a fraction thereof, and a compound isolated therefrom, which were prepared and extracted in Example 1, experiments were performed by applying the method described in the existing references (Ishiyama et al., Talanta, 44, pp. 1299-1305, 1997; Tominaga et al., Anal. Commun., 36, pp. 47-50, 1999).
H292 (CRL-1848) was purchased from the American Type Culture Collection (ATCC). The H292 cells were cultured in RPMI medium (SH30027.01, RPMI 1640, Gibco) containing 10% fetal bovine serum and antibiotics, and cultured in the condition of humidified 5% CO2 atmosphere at 37° C. TNF-α was purchase from a company (300-01A, Peprotech, USA) and used.
The cells in a medium (GM) were placed in a 96-well plate at a density of (1×10^3 cells/well). After 24 hours, the cells were cultured along with a sample for one day. The cell viability rate was read via trivalues according to the manufacturer's manual using the Cell Counting Kit-8 (CK04-01, Dojindo Molecular Technologies, ML). The absorbance was measured using the VERSAmax microplate reader (SMP500-14915, Molecular Devices, USA) and the measured absorbance was converted into a cell number via a standard curve.
H292 cells, human mucosa cells of lung cancer, were suspended in RPMI medium (Gibco) containing 10% fetal bovine serum in a concentration of 5×10^4 cells/mL, inoculated to a 96 well-plate in an amount of 100 μL per each well, and allowed to be attached thereto for 12 hours. Six active fractions of Pistacia and 3 single compounds (PW11, PW12, and PW13) were treated according to concentrations, and cultured for 24 hours. As explained in the cell counting CCK-8 kit (Dojindo Molecular Technologies, ML), the CCK-8 solution (10 μL) was mixed with the medium (90 μL). The mixture (100 μL) was added to each well, reacted for the minimum 30 minutes to the maximum 4 hours, and the absorbance was measured at 570 nm. The cell viability was calculated according to Equation 1 above with reference to the negative control, which was treated with DMSO in a concentration of 0.2%, set at 100%. Cell Viability (%)=[value at OD 570 nm after treatment with an extract/value at OD 570 nm (negative control)]×100 [Equation 1]

## O=C(/C=C/c1ccc(Oc2ccc([C@@H]3[C@@H](C(=O)c4ccc(O)cc4O)[C@H](C(=O)c4ccc(O)cc4O)[C@H]3c3ccc(O)cc3)cc2O)cc1)c1ccc(O)cc1O [Compound PW13, di-(2,4-dihydroxybenzoyl)-(3,4-dihydroxyphenyl)-(4-hydroxyphenyl)-cyclobutane-3-O-4′-bichalcone]
MUC5AC; Conc. 0.125 μM
  Amount of MUC5AC Secretion (Relative % to TNF-α Treated Group): 83.92 ± 9.77%
  inhibition at 0.125 µM: 16.1%
MUC5AC; Conc. 0.25 μM
  Amount of MUC5AC Secretion (Relative % to TNF-α Treated Group): 82.39 ± 3.10%
  inhibition at 0.25 µM: 17.6%
MUC5AC; Conc. 0.5 μM
  Amount of MUC5AC Secretion (Relative % to TNF-α Treated Group): 77.30 ± 2.33%
  inhibition at 0.5 µM: 22.7%
MUC5AC; Conc. 1 μM
  Amount of MUC5AC Secretion (Relative % to TNF-α Treated Group): 73.76 ± 2.68%
  inhibition at 1 µM: 26.2%
H292 cells; 0.125 μM
  H292 Cell Viability Rate (%, Mean ± SD): 104.80 ± 2.34%
H292 cells; 0.25 μM
  H292 Cell Viability Rate (%, Mean ± SD): 103.53 ± 3.07%
H292 cells; 0.5 μM
  H292 Cell Viability Rate (%, Mean ± SD): 126.28 ± 7.75%
H292 cells; 1 μM
  H292 Cell Viability Rate (%, Mean ± SD): 71.92 ± 5.47%

## O=C(/C=C/c1ccc(Oc2ccc(/C=C/C(=O)c3ccc(O)cc3O)cc2O)cc1)c1ccc(O)cc1O [Compound PW12]
MUC5AC; Conc. 0.125 μM
  Amount of MUC5AC Secretion (Relative % to TNF-α Treated Group): 75.77 ± 7.66%
  inhibition at 0.125 µM: 24.2%
MUC5AC; Conc. 0.25 μM
  Amount of MUC5AC Secretion (Relative % to TNF-α Treated Group): 74.23 ± 12.98%
  inhibition at 0.25 µM: 25.8%
MUC5AC; Conc. 0.5 μM
  Amount of MUC5AC Secretion (Relative % to TNF-α Treated Group): 69.50 ± 5.37%
  inhibition at 0.5 µM: 30.5%
MUC5AC; Conc. 1 μM
  Amount of MUC5AC Secretion (Relative % to TNF-α Treated Group): 69.74 ± 8.56%
  inhibition at 1 µM: 30.3%
H292 cells; 0.125 μM
  H292 Cell Viability Rate (%, Mean ± SD): 95.80 ± 2.90%
H292 cells; 0.25 μM
  H292 Cell Viability Rate (%, Mean ± SD): 96.47 ± 3.21%
H292 cells; 0.5 μM
  H292 Cell Viability Rate (%, Mean ± SD): 104.50 ± 1.32%
H292 cells; 1 μM
  H292 Cell Viability Rate (%, Mean ± SD): 115.88 ± 0.50%
